In experiment [1] the test system is enteropathogenic wild type E. coli strain 37. Nature of the experiment: Inhibition with soluble oligosaccharides in the chromatogram binding assay. Further details: species or system Escherichia coli. The procedure:
FIG. 5. […] Radiolabeled wild type E. coli strain 37 was incubated with a mixture of globotriaose (1.5 mM), neolactotetraose (1.5 mM) and 6′sialyllactose (1.5 mM) in PBS for 1 h at room temperature. Thereafter the suspensions were utilized in the chromatogram binding assay. (A) Binding of radiolabeled E. coli strain 37. (B) Binding of E. coli strain 37 incubated with a mixture of globotriaose, neolactotetraose and 6′sialyllactose. Lanes 1-4 were serial dilutions of globotriaosylceramide (Galα4Galβ4Glc β1Cer) and NeuGc-neolactohexaosylceramide (NeuGcα3Galβ4GlcNAcβ3Gaβ4GlcNacβ3Galβ4Glcβ1Cer). Lane 1, 2 μg of each compound, lane 2, 1 μg of each compound, lane 3, 0.5 μg of each compound, lane 4, 0.2 μg of each compound. Lanes 5-8 were serial dilutions of NeuGc-neolactotetraosylceramide (NeuGcα3Galβ4GlcNAcβ3Galβ4Glcβ1Cer). Lane 5, 2 μg of each compound, lane 6, 1 μg of each compound, lane 7, 0.5 μg of each compound, lane 8, 0.2 μg of each compound. The glycosphingolipids were separated on aluminium-packed silica gel plates, using chloroform/methanol/water (60:35:8, by volume) as solvent system, and the binding assay was performed as described under “Experimental procedures”. Autoradiography was for 12 h.
(C) Binding curves obtained after quantification of binding by densitometry. The autoradiograms in (A) and (B) were analyzed using the NIH Image program. […]

A further experiment relates to EPEC. Conditions: 100 mM; cited from earlier work.
The next experiment concerns diarrheagenic E. coli. Nature of the experiment: Inhibition with soluble oligosaccharides in the chromatogram binding assay. On the set-up: species or system Escherichia coli. The procedure:
(§1) Glycosphingolipid Binding Assays—Binding of ^35S-labeled bacteria to glycosphingolipids on thin-layer chromatograms was done as reported (7). Dried chromatograms were dipped for 1 min in diethylether/n-hexane (1:5, by volume) containing 0.5% (w/v) polyisobutylmethacrylate (Aldrich Chem. Comp. Inc., Milwaukee, Wis.). After drying, the chromatograms were soaked in PBS containing 2% bovine serum albumin (w/v), 0.1% NaN3 (w/v) and 0.1% Tween 20 (by volume) for 2 h at room temperature. The chromatograms were subsequentely covered with radiolabeled bacteria diluted in PBS (2-5×10^6 cpm/ml). Incubation was done for 2 h at room temperature, followed by repeated washings with PBS. The chromatograms were thereafter autoradiographed using XAR-5 X-ray films (Eastman Kodak, Rochester, N.Y.) for 12 h. Autoradiograms were replicated using a CCD camera (Dage-MTI, Inc., Michigan City, Ind.), and analysis of the images was performed using the public domain NIH Image program (developed at the U.S. National Institutes of Health, and available at http://rsb.info.nih.eov/nih-imaee/).
The final concentrations of the inhibiting oligosaccharides on the TLC-plate were 0.3 mM. […] Thereafter the chromatogram binding assay was performed as described above.

In experiment [2] the test system is shiga toxina and shigalike toxin. Conditions: cited from earlier work.
The subject of experiment [3] is Helicobacter pylori. Conditions: in vivo; cited from earlier work.
Experiment [4] deals with Helicobacter pylori. Conditions: cited from earlier work.
For the next experiment, the system named is H. felis CCUG 28539. Nature of the experiment: Binding of 35S-labeled Helicobacter species to glycosphingolipids on thin-layer chromatograms. Conditions: 2 μg (40 μg for the glycosphingolipid fraction) on TLC plates. Further details: species or system Helicobacter felis; key: An significant darkening on the autoradiogram when 2 μg of the glycosphingolipid was applied on the thin-layer plate is denoted by +; − denotes no binding. The text has this:
(§2) Gastric species examined in the present study included, Helicobacter mustelae ferret isolates from the National Collection of Type Cultures (NCTC) and the Culture Collection of the University of Gothenberg (CCUG), NCTC 12198/CCUG 25175 (equivalent strains from different sources tested), CCUG 23950 and CCUG 23951, Helicobacterfelis CCUG 28539 from a cat, in addition, H. pylori strains CCUG 17874, CCUG 17875 and a clinical isolate 119/95 were used. Enterohepatic helicobacters of animal origin were purchased from the CCUG including, Helicobacter canes CCUG 33835, Helicobacter bilis CCUG 38995, Helicobacter hepaticus CCUG 33637, and Helicobacterfennelliae (CCUG 18820).
(§3) Binding of Helicobacter spp. to glycosphingolipids, both acid and non-acidfractions. Glycosphingolipids were isolated by standard procedures (Karlsson, 1987). The identity of the purified glycosphingolipids was confirmed by mass spectrometry (Samuelsson et al., 1990), proton NMR spectroscopy (Koerner et al., 1983) and degradation studies (Stellner et al., 1973; Yang and Hakomori, 1971).
(§4) Mixtures of glycosphingolipids (40 μg/lane) or pure compounds (2 μg/lane) were subsequently separated using thin-layer chromatography (TLC) on glass- or aluminum-backed silica gel 60 HPTLC plates (Merck, Darmstadt, Germany), with chloroform/methanot/water (60:35:8, by volume) as solvent system. Chemical detection was accomplished by anisaldehyde (Waldi, 1962). Helicobacter spp. were subjected to ^35S-labeling (Angstrom et al., 1998) and suspended in PBS (10^8 CFU/ml) with a specific activity of approximately 1 cpm per 100 organisms. Binding of the labeled-bacteria to glycosphingolipids separated by TLC was achieved using a bacterial-overlay technique coupled with autoradiography detection using XAR-5 X-ray films (Eastman Kodak, Rochester, N.Y.) as previously described (Hansson et al., 1985).

Another experiment has as its system H. bilis CCUG 38995. The experiment is described as above. Further details: species or system Helicobacter bilis; key: An significant darkening on the autoradiogram when 2 μg of the glycosphingolipid was applied on the thin-layer plate is denoted by +; − denotes no binding. Conditions: 2 μg (40 μg for the glycosphingolipid fraction) on TLC plates.
Source text: as §2, §3, §4

Another experiment concerns H. canis CCUG 33835. The experiment is described as above. Further details: species or system Helicobacter canis; key: An significant darkening on the autoradiogram when 2 μg of the glycosphingolipid was applied on the thin-layer plate is denoted by +; − denotes no binding. Conditions: 2 μg (40 μg for the glycosphingolipid fraction) on TLC plates.
Source text: as §2, §3, §4

In the next experiment the test system is H. mustelae 25715. Described as above. On the set-up: species or system Helicobacter mustelae; key: An significant darkening on the autoradiogram when 2 μg of the glycosphingolipid was applied on the thin-layer plate is denoted by +; − denotes no binding. Conditions: 2 μg (40 μg for the glycosphingolipid fraction) on TLC plates.
Source text: as §2, §3, §4

Experiment [5] deals with H. mustelae CCUG 23950 & 23951. Described as above. On the set-up: species or system Helicobacter mustelae; key: An significant darkening on the autoradiogram when 2 μg of the glycosphingolipid was applied on the thin-layer plate is denoted by +; − denotes no binding. Conditions: 2 μg (40 μg for the glycosphingolipid fraction) on TLC plates.
Source text: as §2, §3, §4

The subject of the next experiment is H. pylori CCUG 17875. Described as above. Further details: species or system Helicobacter pylori; key: An significant darkening on the autoradiogram when 2 μg of the glycosphingolipid was applied on the thin-layer plate is denoted by +; − denotes no binding. Conditions: 2 μg (40 μg for the glycosphingolipid fraction) on TLC plates.
Source text: as §2, §3, §4

The next experiment concerns H. pylori CCUG 17874. The experiment is described as above. Further details: species or system Helicobacter pylori; key: An significant darkening on the autoradiogram when 2 μg of the glycosphingolipid was applied on the thin-layer plate is denoted by +; − denotes no binding. Conditions: 2 μg (40 μg for the glycosphingolipid fraction) on TLC plates.
Source text: as §2, §3, §4

A further experiment concerns E. coli EIEC CCUG 38092. The experiment in a line: Chromatogram binding assay, binding specificities of type strains. On the set-up: species or system Escherichia coli. Conditions: prolonged sub-culture, 4 μg per lane. The procedure:
Culture Conditions and Labeling—The E. coli strains were cultured on Luria-agar with the addition of 10 μl ^35S-methionine (400 tici; Amersham Pharmacia Biotech, U.K.) at 37° C. for 12 h. The bacteria were harvested by scraping, washed three times with phosphate-buffered saline (PBS), pH 7.3, and thereafter resuspended in PBS (with or without 1% mannose (w/v)) to 1×10^8 CFU/ml. The specific activities of the suspensions were approximately 1 cpm per 100 bacteria.
Thin-Layer Chromatography—Thin-layer chromatography of glycosphingolipids was performed on glass- or aluminum-backed silica gel 60 HPTLC plates (Merck, Darmstadt, Germany), using chloroform/methanol/water 60:35:8 (by volume) as solvent system. Chemical detection was done with anisaldehyde (6).
as §1
However, several wild type diarrheagenic E. coli strains bind to sialic acid (see e.g. FIG. 6 and FIG. 3). […]

In the next experiment the test system is EPEC strain. Conditions: listed in decreasing order of activity; cited from earlier work.
In another experiment the test system is H. hepaticus CCUG 33637. The experiment in a line: Binding of 35S-labeled Helicobacter species to glycosphingolipids on thin-layer chromatograms. On the set-up: species or system Helicobacter hepaticus; key: An significant darkening on the autoradiogram when 2 μg of the glycosphingolipid was applied on the thin-layer plate is denoted by +; − denotes no binding. Conditions: 2 μg (40 μg for the glycosphingolipid fraction) on TLC plates.
Source text: as §2, §3, §4

Turning to `CC(=O)NC1C(O)CC(OCC2OC(OC3C(CO)OC(O)C(O)C3O)C(O)C(O)C2O)(C(=O)O)OC1C(O)C(O)CO` (stereo not shown) [6′sialyllactose, NeuNAcα6Galβ4Glc], the “Inhibition of binding to NeuGcα3-neolactotetraosylceramide” value in [1] is on record as “inhibited”.

For the molecule `CC(=O)N[C@H]1C(O)O[C@H](CO)[C@H](O)[C@@H]1O` (stereo partly shown) [N-acetylgalactosamine], the “Inhibition of EPEC binding to HeLa cells” value in the experiment on EPEC is listed as “inhibited”.

On to `OC[C@H]1O[C@H](O[C@@H]2[C@H](O)[C@@H](O)[C@H](O[C@H]3[C@H](O)[C@@H](O)C(O)O[C@@H]3CO)O[C@@H]2CO)[C@H](O)[C@@H](O)[C@H]1O` (stereo partly shown) [globotriaose, Galα4Galβ4Glc], for which the “Inhibition of non-toxigenic diarrhea causing E. coli by monovalent oligosaccharide” value in the experiment with diarrheagenic E. coli (concentration of 0.3 mM) is reported as “effect is seen”. The “Inhibition of binding to globotriaosylceramide” value with diarrheagenic E. coli (preincubation 1.5 mM, final concentration 0.3 mM) is “Inhibition of binding”. For the same molecule, the “Inhibition of toxin with monovalent inhibitor” value in [2] is “Minor effects”.

Take `CC(=O)N[C@H]1[C@H]([C@H](O)[C@H](O)CO)O[C@@](O[C@H]2[C@@H](O)[C@@H](CO)O[C@@H](O[C@H]3[C@H](O)[C@@H](O)C(O)O[C@@H]3CO)[C@@H]2O)(C(=O)O)C[C@@H]1O` (stereo partly shown) [sialyl-lactose]: the “Efficacy in a rhesus monkey animal model of the infection” value in the experiment on Helicobacter pylori [3] was “effective”. Also, in the experiment on Helicobacter pylori [4], the “Inhibition of Helicobacter pylori binding to human gastrointestinal cell lines” value is recorded as “inhibits”.

Regarding GalNAcβ3Galα4Galβ4Glcβ1Cer [No. 12], the “Binding of glycosphingolipids to H.felis 28539” value in the experiment on H. felis CCUG 28539 is given as “−”. Besides, the “Binding of glycosphingolipids to H.bilis 38995” value with H. bilis CCUG 38995 is listed as “−”. Further, the “Binding of glycosphingolipids to H.canis 33835” value in the experiment on H. canis CCUG 33835 is given as “−”. The “Binding of glycosphingolipids to H.mustelae 25715” value with H. mustelae 25715 was “−”. The “Binding of glycosphingolipids to H.mustelae 23950 & 23951” value in experiment [5] is “−”. Also, the “Binding of glycosphingolipids to H.pylori 17875” value in the experiment on H. pylori CCUG 17875 is recorded as “−”. Besides, in the experiment with H. pylori CCUG 17874, the “Binding of glycosphingolipids to H.pylori 17874” value is listed as “−”. In the experiment with E. coli EIEC CCUG 38092, the “Binding of E. coli CCUG 38092 to pure glycosphingolipids after sub-culture” value is “remain”. The “Binding of an EPEC strain to commercial glycolipids” value in the experiment on EPEC strain is “observed to bind”. Also, the “Binding of glycosphingolipids to H.hepaticus 33637” value with H. hepaticus CCUG 33637 is “−”.

Regarding “Galβ3(Fucα4)GlcNAcβ3Galβ4Glcβ1Cer [No. 24]”, in the experiment with H. felis CCUG 28539, the “Binding of glycosphingolipids to H.felis 28539” value was “−”. Moreover, the “Binding of glycosphingolipids to H.bilis 38995” value with H. bilis CCUG 38995 is “−”. Further, the “Binding of glycosphingolipids to H.canis 33835” value in the experiment on H. canis CCUG 33835 is “−”. The “Binding of glycosphingolipids to H.mustelae 25715” value in the experiment on H. mustelae 25715 is “−”. Besides, the “Binding of glycosphingolipids to H.mustelae 23950 & 23951” value in [5] is reported as “−”. In the experiment with H. pylori CCUG 17875, the “Binding of glycosphingolipids to H.pylori 17875” value is listed as “−”. In addition, the “Binding of glycosphingolipids to H.pylori 17874” value with H. pylori CCUG 17874 is given as “−”. Besides, the “Binding of glycosphingolipids to H.hepaticus 33637” value in the experiment on H. hepaticus CCUG 33637 is “−”.
